Where two headings read alike, the source gives them in different places.
Experiments:
rCedV = assay: microbe, parasite or virus in culture; format: cell-based
rNiV = assay: microbe, parasite or virus in culture; format: cell-based
[1] = target: CedV vRdRp (rCedV TC-tr minigenome) (Cedar virus, UniProt J7GXK9); format: cell-based
[2] = target: GhV vRdRp (rGhV TC-tr minigenome) (Ghana virus, UniProt H9M6P4); format: cell-based
[3] = in vivo; cited from earlier work
[4] = target: NiV vRdRp (rNiV TC-tr minigenome) (Nipah virus, UniProt Q997F0)

Row | Compound | IC50 (rCedV; Cedar virus, BSR-T7/5, 24 h) | IC50 (rNiV) | IC50 (rNiV; Henipavirus nipahense, BHK) | IC50 [1] | IC50 (rCedV; read-out: IC50) | IC50 [2] | oral bioavailability [3] | susceptibility of rNiV TC-tr minigenome [4] | IC50 ([1]; read-out: IC50)
1 | O=c1ccn([C@@H]2O[C@](F)(CO)[C@@H](O)[C@H]2O)c(=O)[nH]1 [EIDD-2749, 4′-Fluorouridine] | 700 nM | 2900 nM | 2600 nM | 2100 nM |  |  |  |  | 
2 | NC(=O)c1c(F)cccc1-c1cccc2cnccc12 [GHP-88309] |  |  |  |  | 1600 nM | 1700 nM | high oral bioavailability | no susceptibility | 5700 nM

— PMC11495047 (Journal of Virology, 2024)
